Assays:
Format in all cases: in vivo
[1] = test system: Echinochloa crus-galli (ECHCG); test: Post-emergence herbicidal action, greenhouse pot test (also comparative test C); conditions: dosage 20 g/ha
Summary of the method: (§1)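 Green parts of one-leaf-stage plants are sprayed at 600 l/ha with formulated compound plus 0.5% additive, then kept under optimum greenhouse conditions for about 3 weeks. Damage is scored visually, where 100% means dead plants and 0% means no difference from controls.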

Setaria viridis (SETVI) = test: as above
Summary of the method: as §1

[2] = test system: Matricaria inodora (MATIN); test: as above
Summary of the method: as §1

[3] = test system: Alopecurus myosuroides (ALOMY); test: as above; conditions: 20 g/ha, rated visually after about 3 weeks vs untreated controls, 100% = plants have died
Summary of the method: as §1

Oryza sativa (ORYSA) = test: Post-emergence crop plant compatibility, greenhouse pot test (also comparative test C); conditions: vs untreated controls
Summary of the method: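 Visual damage versus untreated plants (0% = like control, 100% = plants died) was scored about 3 weeks after a post-emergence spray in greenhouse pots. Treatment: one-leaf stage, WP or EC in water at 600 l/ha with 0.5% additive; a/b/c mark different dosages on the same crop.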

Veronica persica (VERPE) = test: Post-emergence herbicidal action, greenhouse pot test
Summary of the method: (§2)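 Activity was scored by eye about 3 weeks after treatment against untreated plants, where 100% means dead plants and 0% means no difference. Plants at the one-leaf stage received a foliar spray of WP or EC formulations in water plus 0.5% additive (600 l/ha, up to 20 g/ha). Plants were grown in sandy loam pots in a greenhouse for 2–3 weeks before spraying.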

Viola tricolor (VIOTR) = test: as above
Summary of the method: as §2

[4] = test system: Polygonum convolvulus (POLCO); test: as above
Summary of the method: as §2

[5] = test system: Pharbitis purpurea (PHBPU); test: as above
Summary of the method: as §2

[6] = test system: Abutilon theophrasti (ABUTH); test: as above; conditions: rated visually after about 3 weeks vs untreated controls, 100% = plants have died
Summary of the method: as §2

Stellaria media (STEME) = test: as above
Summary of the method: as §2

[7] = test system: Amaranthus retroflexus (AMARE); test: as above; conditions: rated visually after about 3 weeks vs untreated controls, 100% = plants have died
Summary of the method: as §2

[8] = test system: Triticum aestivum (TRZAS); test: Post-emergence crop plant compatibility, greenhouse pot test; conditions: 1.25 g/ha, vs untreated controls
Summary of the method: (§3)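 Compatibility was scored as visual % effect against untreated controls about 3 weeks after spraying green plant parts at the one-leaf stage. Formulations (WP/EC) were applied in aqueous form with 0.5% additive, 600 l/ha, to greenhouse-grown pot plants.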

Zea mays (ZEAMX) = test: as above; conditions: vs untreated controls
Summary of the method: as §3

Glycine max (GLXMA) = test: as above
Summary of the method: as §3

Cn1c(C(F)(F)F)cc(=O)n(-c2cc(Sc3ccccc3OCC(=O)OCC3CCOC3)c(Cl)cc2F)c1=O (racemic) [I.1-72]
Post-emergence action against ECHCG in % [1]: 100% | Post-emergence action against SETVI (Setaria viridis (SETVI); 20 g/ha): 100% | Post-emergence action against SETVI in % (Setaria viridis (SETVI); dosage 1.25 g/ha): 100% | Post-emergence action against SETVI in % (Setaria viridis (SETVI); dosage 5 g/ha): 100% | Post-emergence action against MATIN in % ([2]; dosage 5 g/ha): 90% | Post-emergence action against MATIN in % ([2]; dosage 20 g/ha): 100% | Post-emergence action at 20 g/ha against ALOMY in % [3]: 80% | Post-emergence action against ORYSA (crop plant compatibility) (Oryza sativa (ORYSA); 1.25 g/ha): 10% | Post-emergence action against ORYSA (crop plant compatibility) (Oryza sativa (ORYSA); 5 g/ha): 20% | Post-emergence action against VERPE (Veronica persica (VERPE); 1.25 g/ha): 100% | Post-emergence action against VERPE (Veronica persica (VERPE); 5 g/ha): 100% | Post-emergence action against VERPE (Veronica persica (VERPE); 20 g/ha): 100% | Post-emergence action against VIOTR (Viola tricolor (VIOTR); 1.25 g/ha): 100% | Post-emergence action against VIOTR (Viola tricolor (VIOTR); 5 g/ha): 100% | Post-emergence action against VIOTR (Viola tricolor (VIOTR); 20 g/ha): 100% | Post-emergence action against POLCO in % ([4]; dosage 1.25 g/ha): 80% | Post-emergence action against POLCO in % ([4]; dosage 5 g/ha): 100% | Post-emergence action against POLCO in % ([4]; dosage 20 g/ha): 100% | Post-emergence action against PHBPU in % ([5]; dosage 1.25 g/ha): 80% | Post-emergence action against PHBPU in % ([5]; dosage 5 g/ha): 100% | Post-emergence action against PHBPU in % ([5]; dosage 20 g/ha): 100% | Post-emergence action at 1.25 g/ha against ABUTH in % ([6]; 1.25 g/ha): 100% | Post-emergence action at 5 g/ha against ABUTH in % ([6]; 5 g/ha): 100% | Post-emergence action at 20 g/ha against ABUTH in % ([6]; 20 g/ha): 100% | Post-emergence action against STEME (Stellaria media (STEME); 5 g/ha): 100% | Post-emergence action against STEME (Stellaria media (STEME); 20 g/ha): 100% | Post-emergence action at 1.25 g/ha against AMARE in % ([7]; 1.25 g/ha): 80% | Post-emergence action at 5 g/ha against AMARE in % ([7]; 5 g/ha): 100% | Post-emergence action at 20 g/ha against AMARE in % ([7]; 20 g/ha): 100% | Post-emergence action against TRZAS (crop plant compatibility) [8]: 20% | Post-emergence action against ZEAMX (crop plant compatibility) (Zea mays (ZEAMX); 1.25 g/ha): 10% | Post-emergence action against ZEAMX (crop plant compatibility) (Zea mays (ZEAMX); 5 g/ha): 20% | Post-emergence action against GLXMA in % (Glycine max (GLXMA); 1.25 g/ha): 10% | Post-emergence action against GLXMA in % (Glycine max (GLXMA); 5 g/ha): 20%

Reference: US20240025862A1, “SUBSTITUTED N-PHENYLURACILS AND SALTS THEREOF, AND USE THEREOF AS HERBICIDAL ACTIVE SUBSTANCES” (Bayer Aktiengesellschaft, priority 2020, published 2024)
